Assays:
[1] = test system: CAPANI cells (which are deficient in brca2); conditions: cited from earlier work
[2] = mouse, in vivo
MCF-7 brca1+/+cells = conditions: 10 μM, exposure for 10 consecutive days; cited from earlier work

Compound: O=C1CCC(=O)N1c1cc(Cc2n[nH]c(=O)c3ccccc23)ccc1F [KU0058684]
- inhibition of CAPANI cells [1]: inhibited

Compound: Cc1nc2c(O)cccc2c(=O)[nH]1 [NU1025]
- inhibition of CAPANI cells [1]: not inhibited

Compound: poly-[2-(2-ethoxyethoxyethyl)guanidinium hydrochloride]
- tolerated dose, daily intravenous dosing regime [2]: 2.5 mg/kg body weight
- tolerated dose, weekly basis ([2]; iv): 5 mg/kg body weight

Compound: CN(C)Cc1ccc(-c2nc3cccc4c3n2CCNC4=O)cc1 [AG14361]
- MCF-7 brca1+/+ cells eradicated (MCF-7 brca1+/+cells): 50%

Source: patent US20210220295A1, “TREATMENT OF CANCER BY GUANIDINIUM DERIVATIVES” (priority 2018, published 2021)
